# In patent US6635621B1, “Cysteine protease inhibitors” (Naeja Pharmaceutical Inc., priority 1999, dated 2003):
# What was measured:
# rat cathepsin B = rat cathepsin B (Rattus norvegicus, UniProt P00787); assay: In vitro assay for inhibition of cathepsin B; assay type: biochemical; details: r rat cathepsin B, substrate N-CBZ-Phe-Arg-AMC, pH 5.1, 10 min incubation at room temperature
# Experimental: In Vitro Assay Procedure for Cathepsin B
# The compounds of formula I were tested for inhibition of cathepsin B using the known method (A. J. Barret et al., Biochem. J. 1982, 201, 189-198). To a 170 μl of enzyme-buffer mixture (enzyme: r rat cathepsin B, diluted to give approximate 10 F units/min, buffer: 56 mM sodium acetate, 1.124 mM EDTA, 10 mM DTT, pH 5.1) a 10 μL of inhibitor (dissolved in DMSO) was added. After 10 min of incubation at room temperature, a 20 μl of 5 mM substrate (N-CBZ-Phe-Arg-AMC, dissolved in DMSO) was added to initiate reaction. Reading is followed up for 10 min at the fluoroscan reader (excitation at 380 nm emission at 460 nm).
# (§1) A plot of percentage of inhibition vs inhibitor concentration is obtained, and IC50 is determined using a linear regression calculations (concentration of inhibitor which will give 50% inhibition).
# rat cathepsin L = rat cathepsin L (Rattus norvegicus, UniProt P07154); assay: In vitro assay for inhibition of cathepsin L; assay type: biochemical; details: r rat cathepsin L, substrate N-CBZ-Phe-Arg-AMC, pH 5.0, 10 min incubation at room temperature
# rat cathepsin L, sequence (P07154 114-334): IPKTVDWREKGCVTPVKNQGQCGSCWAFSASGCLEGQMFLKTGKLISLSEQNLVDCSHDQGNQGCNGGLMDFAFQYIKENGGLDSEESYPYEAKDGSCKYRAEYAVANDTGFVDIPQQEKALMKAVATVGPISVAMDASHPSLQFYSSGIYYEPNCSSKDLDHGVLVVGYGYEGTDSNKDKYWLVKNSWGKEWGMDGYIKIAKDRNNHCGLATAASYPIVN
# Experimental: In Vitro Assay Procedure for Cathepsin L
# To a 170 μl of enzyme-buffer mixture (enzyme: r rat cathepsin L, diluted to give approximate 15 F units/min, buffer: 58.8 mM sodium citrate, 1.18 mM EDTA, 235 mM sodium chloride, 5 mM […], pH 5.0) a 10 μL of inhibitor (dissolved in DMSO) was added. After 10 min of incubation at room temperature, a 20 μl of 1 mM substrate (N-CBZ-Phe-Arg-AMC, dissolved in DMSO) was added to initiate reaction. Reading is followed up for 10 min at the fluoroscan reader (excitation at 380 nm emission at 460 nm).
# as §1
# cathepsin K = target: T1, cathepsin K (Homo sapiens, UniProt P43235); assay: In vitro assay for inhibition of cathepsin K; assay type: biochemical; details: r cathepsin K, substrate N-CBZ-Phe-Arg-AMC, pH 5.5, 10 min incubation at room temperature
# T1 sequence (P43235 115-329): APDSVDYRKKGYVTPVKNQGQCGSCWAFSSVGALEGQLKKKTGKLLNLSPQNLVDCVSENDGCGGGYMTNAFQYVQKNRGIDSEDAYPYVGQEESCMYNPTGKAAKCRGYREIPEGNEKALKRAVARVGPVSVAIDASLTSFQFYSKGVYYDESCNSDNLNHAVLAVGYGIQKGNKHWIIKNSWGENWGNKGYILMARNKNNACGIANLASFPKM
# Experimental: In Vitro Assay Procedure for Cathepsin K
# (§2) To a 170 μl of enzyme-buffer mixture (enzyme: r cathepsin K, diluted to give approximate 30 F units/min, buffer: 100 mM sodium acetate, 5 mM EDTA, 20 mM L-cysteine, 0.01% Brij, pH 5.5) a 10 μL of inhibitor (dissolved in DMSO) was added. After 10 min of incubation at room temperature, a 20 μl of 2.7 mM substrate (N-CBZ-Phe-Arg-AMC, dissolved in DMSO) was added to initiate reaction. Reading is followed up for 10 min at the fluoroscan II plate reader (excitation at 380 nm emission at 460 nm).
# as §1
# cathepsin S = cathepsin S (Homo sapiens, UniProt P25774); assay: In vitro assay for inhibition of cathepsin S; assay type: biochemical; details: r cathepsin S, substrate N-CBZ-Val-Val-Arg-AMC, pH 6.5, 10 min incubation at room temperature
# cathepsin S, sequence (P25774 115-331, species assumed): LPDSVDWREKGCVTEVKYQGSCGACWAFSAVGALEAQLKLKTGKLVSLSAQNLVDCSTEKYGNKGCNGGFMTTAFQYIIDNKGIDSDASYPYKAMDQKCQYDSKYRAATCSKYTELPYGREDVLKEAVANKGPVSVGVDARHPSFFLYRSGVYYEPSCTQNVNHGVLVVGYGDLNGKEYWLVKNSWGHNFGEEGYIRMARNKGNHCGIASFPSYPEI
# Experimental: In Vitro Assay Procedure for Cathepsin S
# as §2, with “S,” for “K,”, “phosphate, 1 mM EDTA,” for “acetate,”, “DTT,” for “EDTA, 20 mM L-cysteine,”, “6.5)” for “5.5)”, “1.2” for “2.7”, “(N-CBZ-Val-Val-Arg-AMC,” for “(N-CBZ-Phe-Arg-AMC,”
# as §1
# rat cathepsin B, sequence (P00787 80-333): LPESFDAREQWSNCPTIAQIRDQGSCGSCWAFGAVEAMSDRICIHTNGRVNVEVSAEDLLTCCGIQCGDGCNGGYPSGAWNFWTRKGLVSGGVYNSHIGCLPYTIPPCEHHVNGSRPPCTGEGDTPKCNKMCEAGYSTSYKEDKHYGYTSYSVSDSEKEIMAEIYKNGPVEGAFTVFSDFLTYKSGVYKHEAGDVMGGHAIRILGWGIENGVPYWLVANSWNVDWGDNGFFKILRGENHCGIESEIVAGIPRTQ
IC50 (rat cathepsin B) [µM],IC50 (rat cathepsin L) [µM],melting point [°C],IC50 (cathepsin K) [µM],IC50 (cathepsin S) [µM],SMILES
> 58,≥ 58,–,> 58,5.23,"CC(=O)N/C=C(\NC(=O)[C@H](CC1CCCCC1)NC(=O)OCc1ccccc1)C(N)=O [Example 19b, (2Z)-(2S-2-Benzyloxycarbonylamino-2-cyclohexylmethyl-acetamido)-3-acetamido-acrylamide]"
1.83,0.048,–,0.28,0.57,"COC(=O)[C@H](Cc1ccccc1)N/C=C(/NC(=O)[C@H](Cc1ccccc1)NC(=O)OCc1ccccc1)C(N)=O [Example 30a, (2E)-(2S-2-Benzyloxycarbonylamino-2-phenylmethyl-acetamido)-3-(1-carbomethoxy-2-phenethylamino)-acrylamide]"
0.43,0.017,–,0.09,0.43,"COC(=O)CN/C=C(\NC(=O)[C@H](Cc1ccccc1)NC(=O)OCc1ccccc1)C(N)=O [Example 31b, (2Z)-(2S-2-Benzyloxycarbonylamino-2-phenylmethyl-acetamido)-3-(1-carbomethoxy-methylamino)-acrylamide]"
0.66,0.017,–,0.13,0.7,"COC(=O)CN/C=C(/NC(=O)[C@H](Cc1ccccc1)NC(=O)OCc1ccccc1)C(N)=O [Example 31a, (2E)-(2S-2-Benzyloxycarbonylamino-2-phenylmethyl-acetamido)-3-(1-carbomethoxy-methylamino)-acrylamide]"
1.83,0.035,–,0.28,1.21,"COC(=O)[C@H](Cc1ccccc1)N/C=C(\NC(=O)[C@H](Cc1ccccc1)NC(=O)OCc1ccccc1)C(N)=O [Example 30b, (2Z)-(2S-2-Benzyloxycarbonylamino-2-phenylmethyl-acetamido)-3-(1-carbomethoxy-2-phenethylamino)-acrylamide]"

# Continued, compound first:
SMILES,IC50 (rat cathepsin B) [µM],IC50 (rat cathepsin L) [µM],melting point [°C],IC50 (cathepsin K) [µM],IC50 (cathepsin S) [µM]
"NC=C(NC(=O)[C@H](Cc1ccccc1)NC(=O)OCc1ccccc1)C(N)=O [Example 3, 2-(2S-2-Benzyloxycarbonylamino-2-benzyl-acetamido)-3-amino-acrylamide]",1.42,0.0055,127 to 135,0.23,0.26
"CC(C)C[C@H](NC(=O)OCc1ccccc1)C(=O)N/C(=C/N1CCOCC1)C(=O)OC(C)(C)C [Example 20, tert-Butyl-2-[2S-(benzyloxycarbonylamino)-2-isopropylmethyl-acetamido]-2-(morpholino-1-methylenyl)-acetate]",0.42,0.08,–,0.004,0.38
"CCOC(=O)/C(=C\N1CCOCC1)NC(=O)[C@H](CC(C)C)NC(=O)OCc1ccccc1 [Example 23, Ethyl-2-[2S-(benzyloxycarbonylamino)-2-isopropylmethyl-acetamido]-2-(morpholino-1-methylenyl)-acetate]",0.45,0.089,–,0.011,0.038
"CC(=O)N/C=C(/NC(=O)[C@H](CC(C)C)NC(=O)OCc1ccccc1)C(N)=O [Example 10a, (2E)-(2S-2-Benzyloxycarbonylamino-2-isopropylmethyl-acetamido)-3-acetamido-acrylamide]",45.2,8.62,73 to 76,1.42,0.013
"CC(C)C[C@H](NC(=O)OCc1ccccc1)C(=O)NC(=CNCc1ccccc1)C(=O)NCc1ccccc1 [Example 16, 2-(2S-2-Benzyloxycarbonylamino-2-isopropylmethyl-acetamido)-3-benzylamino-N-benzyl-acrylamide]",0.15,0.015,–,0.01,0.026
"CC(C)C[C@H](NC(=O)OCc1ccccc1)C(=O)N/C(=C/N1CCOCC1)C(=O)c1ccc(F)cc1 [Example 29, 2-[2S-(Benzyloxycarbonylamino)-2-isopropylmethyl-acetamido]-2-(morpholino-1-methylenyl)-4′-fluoroacetophenone]",50.3,2.01,–,0.34,50.3
"CCOC(=O)/C(=C\N1CCOCC1)NC(=O)[C@H](CC1CCCCC1)NC(=O)OCc1ccccc1 [Example 24, Ethyl-2-[2S-(benzyloxycarbonylamino)-2-cyclohexylmethyl-acetamido]-2-(morpholino-1-methylenyl)-acetate]",0.082,0.082,–,0.37,0.0033
"COc1ccc(C(=O)/C(=C\N2CCOCC2)NC(=O)[C@H](CC(C)C)NC(=O)OCc2ccccc2)cc1 [Example 28, 2-[2S-(Benzyloxycarbonylamino)-2-isopropylmethyl-acetamido]-2-(morpholino-1-methylenyl)-4′-methoxyacetophenone]",1.96,0.27,–,0.016,1.3
"COc1ccc(C(=O)/C(=C\N2CCOCC2)NC(=O)[C@H](CC(C)C)NC(=O)c2cc3ccccc3s2)cc1 [Example 26, 2-[2S-(Benzothiophen-2-carbonylamino)-2-isopropylmethyl-acetamido]-2-(morpholino-1-methylenyl)-4′-methoxyacetophenone]",1.47,0.075,–,0.015,0.99
"NC(=O)C(NC(=O)[C@H](Cc1ccccc1)NC(=O)OCc1ccccc1)C(O)O (stereo partly drawn) [Example 13, 2-(2S-2-Benzyloxycarbonylamino-2-benzyl-acetamido)-3,3-dihydroxy-propionamide]",1.4,0.004,–,0.4,0.004
"CCOC(=O)/C(=C\N1CCOCC1)NC(=O)[C@H](Cc1ccccc1)NC(=O)OCc1ccccc1 [Example 22, Ethyl-2-[2S-(benzyloxycarbonylamino)-2-phenylmethyl-acetamido]-2-(morpholino-1-methylenyl)-acetate]",0.08,0.04,–,0.04,0.42
"CC(C)C[C@H](NC(=O)OCc1ccccc1)C(=O)N/C(=C/N1CCOCC1)C(=O)c1ccccc1 [Example 27, 2-[2S-(Benzyloxycarbonylamino)-2-isopropylmethyl-acetamido]-2-(morpholino-1-methylenyl)-acetophenone]",32.3,4.24,–,0.14,52.2
"O=C(CCc1ccccc1)N[C@@H](Cc1ccccc1)C(=O)N/C(=C/N1CCOCC1)C(=O)OC(c1ccccc1)c1ccccc1 [Example 25, Diphenylmethyl-2-[2S-(3-phenylpropionylamino)-2-phenylmethyl-acetamido]-2-(morpholino-1-methylenyl)-acetate]",0.06,0.18,–,0.065,0.18
"CCOC(=O)/C(=C\N1CCN(C)CC1)NC(=O)[C@H](CC(C)C)NC(=O)OCc1ccccc1 [Example 21, Ethyl-2-[2S-(benzyloxycarbonylamino)-2-isopropylmethyl-acetamido]-2-(4-methylpiperazino-1-methylenyl)-acetate]",8.21,0.21,–,0.087,0.3
"CC(=O)N/C=C(\NC(=O)[C@H](CC(C)C)NC(=O)OCc1ccccc1)C(N)=O [Example 10b, (2Z)-(2S-2-Benzyloxycarbonylamino-2-isopropylmethyl-acetamido)-3-acetamido-acrylamide]",50.5,> 64,–,10.7,> 3.2
